Source: patent publication US9328138B2 (priority 2011, dated 2016)

Legend:
[1] = target: HCV NS3 protease genotype 3a (3A-1) (Hepatitis C virus genotype 3a, UniProt Q81258); assay: HCV NS3 protease time-resolved fluorescence (TRF) assay, genotype 3a; type: biochemical; settings: Ki 3a
Summary of the method: (§1)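 IC50 values derive from 4-parameter fitting of TRF signal after a 6 h room-temperature cleavage of 25 nM peptide substrate by NS3/NS4A that had been pre-incubated 10 min with compound.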

[2] = target: T1, HCV genotype 1b (BK) NS3 modified enzyme with a R155K mutation (Hepatitis C virus genotype 1b, UniProt P26663, R1181K); assay: HCV NS3 protease time-resolved fluorescence (TRF) assay, genotype 1b R155K; type: biochemical; settings: Ki 1b R155K
T1 construct: HCV genotype 1b (BK) NS3 modified enzyme
Summary of the method: as §1

[3] = first of two values printed in the cell (not explained)
[4] = second of two values printed in the cell (not explained)
[5] = genotype 1b (BK) NS3 R155K, single value

Row | Structure (SMILES) | Ki [1] | Ki [2, 3] | Ki [2, 4] | Ki [2, 5]
1 | C=C[C@@H]1CC1(NC(=O)[C@@H]1C[C@@H]2CN1C(=O)[C@H](C1CCCCC1)NC(=O)O[C@@H]1C[C@H]1CCCCCc1c(nc3ccccc3c1OCCCN1CC(F)C1)O2)C(=O)NS(=O)(=O)C1(C)CC1 (some centres unmarked) [Example 250] | 4.45 nM | 0.024 nM | 0.16 nM | 
2 | C=C[C@@H]1C[C@]1(NC(=O)[C@@H]1C[C@@H]2CN1C(=O)[C@H](C1CCCC1)NC(=O)O[C@@H]1CCC[C@H]1CC/C=C/Cc1c(nc3ccccc3c1O)O2)C(=O)NS(=O)(=O)C1(C)CC1 [Example 23, (3aR,7S,10S,12R,21E,24aS)-7-cyclopentyl-N-[(1R,2S)-2-ethenyl-1-{[(1-methylcyclopropyl)sulfonyl]carbamoyl}cyclopropyl]-19-hydroxy-5,8-dioxo-1,2,3,3a,5,6,7,8,11,12,20,23,24,24a-tetradecahydro-10H-9,12-methanocyclopenta[18,19][1,10,3,6]dioxadiazacyclononadecino[11,12-b]quinoline-10-carboxamide] | 0.64 nM |  |  | 0.11 nM
3 | C=C[C@@H]1C[C@]1(NC(=O)[C@@H]1C[C@@H]2CN1C(=O)[C@H](C(C)(C)C)NC(=O)O[C@@H]1C[C@H]1CCCCCc1c(nc3cc(F)ccc3c1OCCCN1CCCC1)O2)C(=O)NS(=O)(=O)C1(C)CC1 [Example 151, (1aR,5S,8S,10R,22aR)-5-tert-butyl-N-[(1R,2S)-2-ethenyl-1-{[(1-methylcyclopropyl)sulfonyl]carbamoyl}cyclopropyl]-14-fluoro-3,6-dioxo-17-[3-(pyrrolidin-1-yl)propoxy]-1,1a,3,4,5,6,9,10,18, 19,20,21,22,22a-tetradecahydro-8H-7,10-methanocyclopropa[18,19][1,10,3,6] dioxadiazacyclononadecino[11,12-b] quinoline-8-carboxamide] | 0.62 nM |  |  | 0.074 nM
4 | C=C[C@@H]1C[C@]1(NC(=O)[C@@H]1C[C@@H]2CN1C(=O)[C@H](C1CCCCC1)NC(=O)O[C@@H]1C[C@H]1CCCCCc1c(nc3ccccc3c1O[C@@H]1CCN(C(=O)OC(C)(C)C)C[C@@H]1F)O2)C(=O)NS(=O)(=O)C1(C)CC1 [Example 292, tert-butyl (3S,4R)-4-{[(1aR,5S,8S,10R,22aR)-5-cyclohexyl-8-{[(1R,2S)-2-ethenyl-1-{[(1-methylcyclopropyl)sulfonyl]carbamoyl}cyclopropyl]carbamoyl}-3,6-dioxo-1,1a,3,4,5,6,9,10,18,19,20,21,22,22a-tetradecahydro-8H-7,10-methanocyclopropa[18,19][1,10,3,6]dioxadiazacyclononadecino[11,12-b]quinolin-17-yl]oxy}-3-fluoropiperidine-1-carboxylate] | 49.4 nM | 0.12 nM | 0.733 nM | 
5 | C=C[C@@H]1C[C@]1(NC(=O)[C@@H]1C[C@@H]2CN1C(=O)[C@H](C(C)(C)C)NC(=O)O[C@@H]1C[C@H]1CCCCCc1c(nc3ccccc3c1OC1C3COCC1CN(CC)C3)O2)C(=O)NS(=O)(=O)C1(C)CC1 (stereo partly drawn) [Example 260, (1aR,5S,8S,10R,22aR)-5-tert-butyl-N-[(1R,2S)-2-ethenyl-1-{[(1-methylcyclopropyl)sulfonyl]carbamoyl}cyclopropyl]-17-[(7-ethyl-3-oxa-7-azabicyclo[3.3.1]non-9-yl)oxy]-3,6-dioxo-1,1a,3,4,5,6,9,10,18,19,20,21,22,22a-tetradecahydro-8H-7,10-methanocyclopropa[18,19][1,10,3,6]dioxadiazacyclononadecino[11,12-b]quinoline-8-carboxamide] | 2.4 nM | 0.019 nM | 0.093 nM | 
6 | C=C[C@@H]1C[C@]1(NC(=O)[C@@H]1C[C@@H]2CN1C(=O)[C@H](C1CCCC1)NC(=O)O[C@@H]1CCC[C@H]1CC/C=C/Cc1c(nc3ccccc3c1OC(=O)C(C)C)O2)C(=O)NS(=O)(=O)C1CC1 [Example 40, (3aR,7S,10S,12R,21E,24aS)-7-cyclopentyl-10-({(1R,2S)-1-[(cyclopropylsulfonyl)carbamoyl]-2-ethenylcyclopropyl}carbamoyl)-5,8-dioxo-1,2,3,3a,5,6,7,8,11,12,20,23,24,24a-tetradecahydro-10H-9,12-methanocyclopenta[18,19][1,10,3,6]dioxadiazacyclononadecino[11,12-b]quinolin-19-yl 2-methylpropanoate] | 27 nM |  |  | 1.3 nM
7 | C=C[C@@H]1C[C@]1(NC(=O)[C@@H]1C[C@@H]2CN1C(=O)[C@H](C(C)(C)C)NC(=O)O[C@@H]1C[C@H]1CCCCCc1c(nc3ccccc3c1OCCCN1CC(O)(c3ccccc3)C1)O2)C(=O)NS(=O)(=O)C1(C)CC1 [Example 193, (1aR,5S,8S,10R,22aR)-5-tert-butyl-N-[(1R,2S)-2-ethenyl-1-{[(1-methylcyclopropyl)sulfonyl]carbamoyl}cyclopropyl]-17-[3-(3-hydroxy-3-phenylazetidin-1-yl)propoxy]-3,6-dioxo-1,1a,3,4,5,6,9,10,18,19,20, 21,22,22a-tetradeca hydro-8H-7,10-methanocyclopropa[18,19][1,10,3,6] dioxadiazacyclononadecino[11,12-b] quinoline-8-carboxamide] | 1.5 nM |  |  | 0.16 nM
8 | COc1c2c(nc3ccccc13)O[C@@H]1C[C@H]3C(=O)N[C@]4(C(=O)NS(=O)(=O)C5(C)CC5)C[C@H]4/C=C\CCCCC[C@H](NC(=O)O[C@@H]4C[C@H]4CCC/C=C/2)C(=O)N3C1 [Example 300, (1aR,5S,11Z,12aS,13aR,16S,19R,27E,31aR)-26-methoxy-N-[(1-methylcyclopropyl)sulfonyl]-3,15,33-trioxo-1,1a,3,4,5,6,7,8,9,10,12a,13,15,16,18,19,29,30,31,31a-icosahydro-5,17:16,19-dimethanodicyclopropa[12,13:28,29][1,20,3,14,17]dioxatriazacyclononacosino[21,22-b]quinoline-13a(14H)-carboxamide] | 7.1 nM |  |  | 0.23 nM
9 | C=C[C@@H]1C[C@]1(NC(=O)[C@@H]1C[C@@H]2CN1C(=O)[C@H](C(C)(C)C)NC(=O)O[C@@H]1C[C@H]1CCCCCc1c(nc3ccccc3c1OCCCN(C)Cc1ccn[nH]1)O2)C(=O)NS(=O)(=O)C1(C)CC1 [Example 202, (1aR,5S,8S,10R,22aR)-5-tert-butyl-N-[(1R,2S)-2-ethenyl-1-{[(1-methylcyclopropyl)sulfonyl]carbamoyl}cyclopropyl]-17-{3-[methyl(1H-pyrazol-5-ylmethyl)amino]propoxy}-3,6-dioxo-1,1a,3,4,5,6,9,10,18, 19,20,21,22,22a-tetradecahydro-8H-7,10-methanocyclopropa[18,19][1,10,3,6] dioxadiazacyclononadecino[11,12-b] quinoline-8-carboxamide] | 0.95 nM |  |  | 0.05 nM
10 | C=C[C@@H]1C[C@]1(NC(=O)[C@@H]1C[C@@H]2CN1C(=O)[C@H](C(C)(C)C)NC(=O)O[C@@H]1C[C@H]1CCCCCc1c(nc3ccccc3c1OCCCNC1CC1)O2)C(=O)NS(=O)(=O)C1(C)CC1 [Example 183, (1aR,5S,8S,10R,22aR)-5-tert-butyl-17-[3-(cyclopropylamino)propoxy]-N-[(1R,2S)-2-ethenyl-1-{[(1-methylcyclopropyl)sulfonyl]carbamoyl}cyclopropyl]-3,6-dioxo-1,1a,3,4,5,6,9,10, 18,19,20,21,22,22a-tetradeca hydro-8H-7,10-methanocyclopropa[18,19][1,10,3,6] dioxadiazacyclononadecino[11,12-b] quinoline-8-carboxamide] | 0.95 nM |  |  | 0.07 nM
11 | C=C[C@@H]1C[C@]1(NC(=O)[C@@H]1C[C@@H]2CN1C(=O)[C@H](C(C)(C)C)NC(=O)O[C@@H]1C[C@H]1CCCCCc1c(nc3c(F)cccc3c1OCCN1CCC1)O2)C(=O)NS(=O)(=O)C1(C)CC1 [Example 212, (1aR,5S,8S,10R,22aR)-17-[2-(azetidin-1-yl)ethoxy]-5-tent-butyl-N-[(1R,2S)-2-ethenyl-1-{[(1-methylcyclopropyl)sulfonyl]carbamoyl}cyclopropyl]-13-fluoro-3,6-dioxo-1,1a,3,4,5,6,9,10,18,19,20,21,22,22a-tetradecahydro-8H-7,10-methanocyclopropa[18,19][1,10,3,6] dioxadiazacyclononadecino[11,12-b]quinoline-8-carboxamide] | 1.9 nM |  |  | 0.22 nM
12 | CC1(S(=O)(=O)NC(=O)[C@@]23C[C@H]2/C=C\CCCCC[C@@H]2NC(=O)O[C@@H]4C[C@H]4CCC/C=C/c4c(nc5ccccc5c4OCCCN4CCOCC4)O[C@@H]4C[C@@H](C(=O)N3)N(C4)C2=O)CC1 [Example 298, (1aR,5S,11Z,12aS,13aR,16S,19R,27E, 31aR)-N-[(1-methylcyclopropyl)sulfonyl]-26-[3-(morpholin-4-yl)propoxy]-3,15,33-trioxo-1,1a,3,4,5,6,7,8,9,10,12a,13,15,16,18,19,29, 30,31,31a-icosahydro-5,17:16,19-dimethanodicyclopropa[12,13:28,29][1,20,3,14,17]dioxatriazacyclononacosino[21,22-b]quinoline-13a(14H)-carboxamide] | 4 nM |  |  | 0.49 nM
13 | C=C[C@@H]1C[C@]1(NC(=O)[C@@H]1C[C@@H]2CN1C(=O)[C@H](C(C)(C)C)NC(=O)O[C@@H]1CCC[C@H]1CC/C=C/Cc1c(nc3ccccc3c1OCCN1CCOCC1)O2)C(=O)NS(=O)(=O)C1CC1 [Example 51, (3aR,7S,10S,12R,21E,24aS)-7-tert-butyl-N-{(1R,2S)-1-[(cyclopropylsulfonyl)carbamoyl]-2-ethenylcyclopropyl}-19-[2-(morpholin-4-yl)ethoxy]-5,8-dioxo-1,2,3,3a,5,6,7,8,11,12, 20,23,24,24a-tetradeca hydro-10H-9,12-methanocyclopenta[18,19][1,10,3,6] dioxadiazacyclononadecino[11,12-b] quinoline-10-carboxamide] | 1.9 nM |  |  | 0.21 nM
